{
  "source": "ChEMBL document CHEMBL5352470",
  "about": "“RS6077 induces mitotic arrest and selectively activates cell death in human cancer cell lines and in a lymphoma tumor in vivo” (Eur J Med Chem, 2023)",
  "key": {"AHH-1 [1]": {"system": "AHH-1", "assay": "Induction of cell cycle arrest in human AHH-1 cells assessed as accumulation of cells at S phase at 100 nM incubated for 72 hrs by annexin V-FITC and PI staining based flow cytometry analysis", "type": "functional"}, "[2]": {"assay": "Metabolic stability in human liver microsome assessed as half life measured upto 60 mins by LC-MS/MS analysis", "type": "ADME", "details": "liver microsomes"}, "[3]": {"assay": "Toxicity in human T cells derived from human PBMC assessed as necrotic cells at 2.5 uM measured for 48 hrs by annexin V-FITC and PI staining based flow cytometry analysis (reference value: 0.31 to 0.48 %)", "details": "t-cell"}, "[4]": {"assay": "Toxicity in human T cells derived from human PBMC assessed as late apoptotic cells at 2.5 uM measured for 72 hrs by annexin V-FITC and PI staining based flow cytometry analysis (reference value: 11.5 to 17.6%)", "details": "t-cell"}, "HeLa [5]": {"system": "HeLa", "assay": "Induction of cell cycle arrest in human HeLa cells assessed as accumulation of cells at G1 phase at 2500 nM incubated for 72 hrs by annexin V-FITC and PI staining based flow cytometry analysis", "type": "functional"}, "[6]": {"assay": "Selectivity ratio of IC50 for human TERT-RPE1 cells to IC50 for human AHH-1 cells", "type": "functional"}, "[7]": {"assay": "Toxicity in human T cells derived from human PBMC assessed as late apoptotic cells at 2.5 uM measured for 48 hrs by annexin V-FITC and PI staining based flow cytometry analysis (reference value: 13.5 to […] %)", "details": "t-cell"}, "AHH-1 [8]": {"system": "AHH-1", "assay": "Induction of apoptosis in human AHH-1 cells at 100 nM measured after 72 hrs by annexin V-FITC and PI staining based flow cytometry analysis", "type": "functional"}, "TERT-RPE1 [9]": {"system": "TERT-RPE1", "assay": "Antiproliferative activity against human TERT-RPE1 cells assessed as inhibition of cell growth measured for 48 hrs by MTT assay", "type": "functional, cell-based", "details": "RPE-1, 48 h"}, "HeLa [10]": {"system": "HeLa", "assay": "Induction of cell cycle arrest in human HeLa cells assessed as accumulation of cells at S phase at 1000 nM incubated for 72 hrs by annexin V-FITC and PI staining based flow cytometry analysis", "type": "functional"}, "TERT-RPE1 [11]": {"system": "TERT-RPE1", "assay": "Induction of apoptosis in human RPE-1 cells assessed as early apoptotic cells at 100 to 2500 nM measured after 72 hrs by annexin V-FITC and PI staining based flow cytometry analysis", "type": "functional, cell-based", "details": "dose 100-2500 nM"}, "MCF7": {"system": "MCF7", "assay": "Antiproliferative activity against human MCF7 cells assessed as inhibition of cell growth measured for 48 hrs by MTT assay", "type": "functional, cell-based", "details": "MCF7, 48 h"}, "[12]": {"assay": "Toxicity in human T cells derived from human PBMC assessed as necrotic cells at 2.5 uM measured for 72 hrs by annexin V-FITC and PI staining based flow cytometry analysis (reference value: 0.48 to 0.56 %)", "details": "t-cell"}, "KARPAS-422": {"system": "KARPAS-422", "assay": "Antiproliferative activity against human KARPAS-422 cells assessed as inhibition of cell growth measured for 72 hrs by MTT assay", "type": "functional, cell-based", "details": "KARPAS-422, 72 h"}, "Z-138": {"system": "Z-138", "assay": "Antiproliferative activity against human Z138 cells assessed as inhibition of cell growth measured for 72 hrs by MTT assay", "type": "functional, cell-based", "details": "Z-138, 72 h"}, "AHH-1 [13]": {"system": "AHH-1", "assay": "Induction of cell cycle arrest in human AHH-1 cells assessed as accumulation of cells at S phase at 2500 nM incubated for 72 hrs by annexin V-FITC and PI staining based flow cytometry analysis", "type": "functional"}, "[14]": {"assay": "Metabolic stability in mouse liver microsome assessed as intrinsic clearance measured upto 60 mins by LC-MS/MS analysis", "type": "ADME", "details": "liver microsomes, read-out: CLH"}, "[15]": {"assay": "Toxicity in human T cells derived from human PBMC assessed as early apoptotic cells at 1 uM measured for 48 hrs by annexin V-FITC and PI staining based flow cytometry analysis (reference value: 6.75 to 8.22 %)", "details": "t-cell"}, "[16]": {"assay": "Toxicity in NOD/SCID mouse assessed as tolerability at 100 mg/kg, po administered for 5 days", "type": "organism-based", "details": "in vivo, 120 h, time 5 day"}, "[17]": {"assay": "Toxicity in human T cells derived from human PBMC assessed as necrotic cells at 0.1 uM measured for 48 hrs by annexin V-FITC and PI staining based flow cytometry analysis (reference value: 0.31 to 0.48 %)", "details": "t-cell"}, "TMD8 [18]": {"system": "TMD8", "assay": "Antitumor activity against human TMD8 cells xenografted in NOD/SCID mouse assessed as reduction in tumor volume at 100 mg/kg, po administered for 5 days and measured on day 9", "type": "functional", "details": "time 9 day"}, "[19]": {"assay": "Toxicity in human T cells derived from human PBMC assessed as viable cells at 2.5 uM measured for 48 hrs by annexin V-FITC and PI staining based flow cytometry analysis (reference value: 77.5 to 79.5 %)", "type": "cell-based, T-cell", "details": "read-out: Activity"}, "[20]": {"assay": "Toxicity in human T cells derived from human PBMC assessed as viable cells at 1 uM measured for 72 hrs by annexin V-FITC and PI staining based flow cytometry analysis (reference value: 66.5 to 77.5 %)", "type": "cell-based, T-cell", "details": "read-out: Activity"}, "TERT-RPE1 [21]": {"system": "TERT-RPE1", "assay": "Induction of cell cycle arrest in human TERT-RPE1 cells assessed as accumulation of cells at G2/M phase at 100 nM incubated for 72 hrs by annexin V-FITC and PI staining based flow cytometry analysis", "type": "functional"}, "HeLa [22]": {"system": "HeLa", "assay": "Induction of cell cycle arrest in human HeLa cells assessed as accumulation of cells at G2/M phase at 100 nM incubated for 72 hrs by annexin V-FITC and PI staining based flow cytometry analysis", "type": "functional"}, "[23]": {"assay": "Toxicity in human T cells derived from human PBMC assessed as necrotic cells at 0.1 uM measured for 72 hrs by annexin V-FITC and PI staining based flow cytometry analysis (reference value: 0.48 to 0.56 %)", "details": "t-cell"}, "[24]": {"assay": "Toxicity in human T cells derived from human PBMC assessed as late apoptotic cells at 1 uM measured for 48 hrs by annexin V-FITC and PI staining based flow cytometry analysis (reference value: 13.5 to […] %)", "details": "t-cell"}, "HeLa [25]": {"system": "HeLa", "assay": "Induction of apoptosis in human HeLa cells assessed as viable cells measured after 72 hrs by annexin V-FITC and PI staining based flow cytometry analysis", "type": "functional, cell-based", "details": "dose 100-2500 nM"}, "[26]": {"assay": "Toxicity in human T cells derived from human PBMC assessed as early apoptotic cells at 1 uM measured for 72 hrs by annexin V-FITC and PI staining based flow cytometry analysis (reference value: 9.70 to […])", "details": "t-cell"}, "TMD8 [27]": {"system": "TMD8", "assay": "Antitumor activity against human TMD8 cells xenografted in NOD/SCID mouse assessed as reduction in tumor volume at 100 mg/kg, po administered for 5 days and measured on day 13", "type": "functional", "details": "time 13 day"}, "[28]": {"assay": "Toxicity in human T cells derived from human PBMC assessed as early apoptotic cells at 2.5 uM measured for 72 hrs by annexin V-FITC and PI staining based flow cytometry analysis (reference value: 9.70 to […])", "details": "t-cell"}, "HeLa [29]": {"system": "HeLa", "assay": "Induction of cell cycle arrest in human HeLa cells assessed as accumulation of cells at G2/M phase at 2500 nM incubated for 72 hrs by annexin V-FITC and PI staining based flow cytometry analysis", "type": "functional"}, "[30]": {"assay": "Toxicity in human T cells derived from human PBMC assessed as viable cells at 0.1 uM measured for 48 hrs by annexin V-FITC and PI staining based flow cytometry analysis (reference value: 77.5 to 79.5 %)", "type": "cell-based, T-cell", "details": "read-out: Activity"}, "[31]": {"assay": "Toxicity in human T cells derived from human PBMC assessed as late apoptotic cells at 0.1 uM measured for 48 hrs by annexin V-FITC and PI staining based flow cytometry analysis (reference value: 13.5 to […] %)", "details": "t-cell"}},
  "note": "Active and inactive are the calls of the source. The rule behind the calls is not given here.",
  "data": [
    {"smiles": "COc1cc(C(=O)c2ccn(-c3ncnc4[nH]ccc34)c2)cc(OC)c1OC", "values": [
      {"measurement": "Activity", "setting": "AHH-1 [1]", "value": 27.2, "unit": "%"},
      {"measurement": "half-life", "setting": "[2]", "value": 50.5, "unit": "min"},
      {"measurement": "Activity", "setting": "[3]", "value": 0.41, "unit": "%"},
      {"measurement": "Activity", "setting": "[4]", "value": 12.7, "unit": "%"},
      {"measurement": "Activity", "setting": "HeLa [5]", "value": 17, "unit": "%"},
      {"measurement": "Ratio IC50", "setting": "[6]", "value": 6.2},
      {"measurement": "Activity", "setting": "[7]", "value": 12.2, "unit": "%"},
      {"measurement": "Activity", "setting": "AHH-1 [8]", "value": 60, "unit": "%"},
      {"measurement": "IC50", "setting": "TERT-RPE1 [9]", "value": 101, "unit": "nM"},
      {"measurement": "Activity", "setting": "HeLa [10]", "value": 44.1, "unit": "%"},
      {"measurement": "Activity", "setting": "TERT-RPE1 [11]", "value": "Active"},
      {"measurement": "IC50", "setting": "MCF7", "value": 38, "unit": "nM"},
      {"measurement": "Activity", "setting": "[12]", "value": 0.14, "unit": "%"},
      {"measurement": "IC50", "setting": "KARPAS-422", "value": 36.3, "unit": "nM"},
      {"measurement": "IC50", "setting": "Z-138", "value": 23.6, "unit": "nM"},
      {"measurement": "Activity", "setting": "AHH-1 [13]", "value": 19.4, "unit": "%"},
      {"measurement": "microsomal CLint", "setting": "[14]", "value": 96, "unit": "µL/min/mg"},
      {"measurement": "Activity", "setting": "[15]", "value": 6.49, "unit": "%"},
      {"measurement": "Activity", "setting": "[16]", "value": "Non-Toxic"},
      {"measurement": "Activity", "setting": "[17]", "value": 0.28, "unit": "%"},
      {"measurement": "Activity", "setting": "TMD8 [18]", "value": 402, "unit": "mm3"},
      {"measurement": "viability at 48 h, 2.5 µM", "setting": "[19]", "value": 72.7, "unit": "%"},
      {"measurement": "viability at 72 h, 1 µM", "setting": "[20]", "value": 64.7, "unit": "%"},
      {"measurement": "Activity", "setting": "TERT-RPE1 [21]", "value": 83, "unit": "%"},
      {"measurement": "Activity", "setting": "HeLa [22]", "value": 28.3, "unit": "%"},
      {"measurement": "Activity", "setting": "[23]", "value": 0.48, "unit": "%"},
      {"measurement": "Activity", "setting": "[24]", "value": 12.7, "unit": "%"},
      {"measurement": "Activity", "setting": "HeLa [25]", "value": "Dose-Dependent Effect"},
      {"measurement": "Activity", "setting": "[26]", "value": 11.6, "unit": "%"},
      {"measurement": "Activity", "setting": "TMD8 [27]", "value": 354, "unit": "mm3"},
      {"measurement": "Activity", "setting": "[28]", "value": 10.3, "unit": "%"},
      {"measurement": "Activity", "setting": "HeLa [29]", "value": 34.4, "unit": "%"},
      {"measurement": "viability at 48 h, 0.1 µM", "setting": "[30]", "value": 75.4, "unit": "%"},
      {"measurement": "Activity", "setting": "[31]", "value": 13.3, "unit": "%"}
    ]}
  ]
}
